Data reported in patent US10016383B2, “Inhibitors of metallo-β-lactamase-enzymes” (McMaster University, priority 2013, dated 2018).

System: E. coli BW25113ΔbamBΔtolCΔaraDAB::pLac(blaNDM-1)
Assay: Cell-based screen for NDM-1 inhibitors with sub-lethal meropenem
Parameters: species or system Escherichia coli
Settings: in combination with meropenem
Protocol: A cell-based screen for inhibitors of the NDM-1 metallo-β-lactamase using a collection of natural product extracts derived from environmental microorganisms was performed. To increase the sensitivity of the screen to MBL inhibitor discovery a test strain of Escherichia coli BW25113 in which the bamB and tolC genes were independently deleted (E. coli BW25113ΔbamBΔtolC) was generated. BamB is involved in outer membrane porin assembly and disruption results in increased permeability to small molecules^19 and TolC is a part of the tripartite small molecule efflux systems such as AcrA-AcrB-TolC that serve to actively eliminate small molecules from the cell^20. Therefore, E. coli BW25113ΔbamBΔtolC increases the sensitivity of the screen to discovery of “hits”. This strain was further modified by integrating the blaNDM-1β-lactamase gene under control of the pLac promoter into the chromosome [E. coli BW25113ΔbamBΔtolCΔaraDAB::pLac(blaNDM-1)]. This strain was screened in the presence of a sub-lethal concentration of meropenem (of the minimum inhibitory concentration 0.125 μg/mL) in combination with ˜500 natural product extracts.
˜500 natural product extracts were screened against E. coli BW25113ΔbamBΔto1CΔaraDAB::pLac(blaNDM-1) in combination with 0.125 μg/mL meropenem. […] Z′ was determined to be 0.77, indicating an excellent screening window^22.

## N[C@H](CN[C@H](CN[C@@H](CC(=O)O)C(=O)O)C(=O)O)C(=O)O [AM-A, aspergillomarasmine A]
  restoration of meropenem antibiotic activity: restored meropenem activity
